In general, EC50 refers to the concentration at which the effect is half-maximal. By IC50 is commonly meant the concentration that inhibits the measured activity by half. Read a low IC50 as higher potency.

The test system of test [1] is CAL-12-T cells (Class 3, BRAF^G466V). Nature of the test: Cell proliferation (MTS) assay. It counts as cell-based. The conditions noted are these: 5 days. As for the experimental part: […] 2 mg/ml MTS (Promega Corp., Madison, WI: G5421) and 25 μM phenazine methosulfate (Sigma, St. Louis, MO) were combined 19:1 and then added to cells (1 volume combined reagent: 5 volumes medium) and incubated for 1–3 h. Mitochondrial reduction of MTS to the formazan derivative was monitored by measuring the medium’s absorbance at 480 nm using a Perkin Elmer Envision Plate reader.

For test [2], the system named is MEK and ERK phosphorylation (SK-MEL-28 cells). Nature of the test: MEK and ERK phosphorylation by immunoblot in SK-MEL-28 cells. It counts as cell-based. On the procedure:
(§1) Cells were plated in 6 well dishes (5 × 10^5–8 × 10^5 cells) and allowed to attach overnight. […] The plates were then placed on ice and washed 1x with chilled PBS and lysed in buffer containing 25 mM Tris-HCl [pH 7.4], 0.25% sodium deoxycholate, 150 mM NaCl, 1% Triton X-100, supplemented with protease inhibitors (1x Roche protease inhibitor cocktail) and phosphatase inhibitors (10 mM NaF, 1 mM Na3OV4, and 20 mM β-glycerophosphate). Lysates were then cleared at 21,000 g for 10 min at 4 °C. Protein concentrations of the supernatants were then quantified using a Pierce BCA Protein Assay. 12–40 µg of protein were separated using a gradient (4–20%) Criterion TGX precast gel and transferred unto a nitrocellulose membrane. The membranes were then blocked in 5% non-fat milk in TBST (Tris-buffered Saline with Tween 20) for 1 h before probing with the indicated primary antibody overnight. Membranes were imaged using Bio-Rad Image Lab software using ECL prime detection reagent (GE Healthcare, RPN2232 or ThermoScientific, 34095).
(§2) Western blot data was quantified by using the band feature in Image Lab, and values were averaged and analyzed in GraphPad Prism. DC50 and DMAX values were fitted using a three parameter [inhibitor] versus response and reported directly from the Prism output. Mean ± SD and unpaired t-tests were performed in GraphPad Prism.
In general terms: Immunoblotting shows a protein as a band on a membrane.

Test [3] deals with SK-MEL-28 cells (Class 1, BRAF^V600E). Nature of the test: Cell proliferation (MTS) assay. The test is classed as cell-based. The note with it: Homo sapiens, 72 h, 3 days, read-out: EC50, cell growth.
Test [4] deals with T1, BRAF^V600E (SK-MEL-28 cells, homozygous) (Homo sapiens, UniProt P15056, V600E).
T1 construct: endogenous in cells; host or cells: SK-MEL-28
Nature of the test: BRAF degradation by immunoblot in SK-MEL-28 cells. The test is classed as cell-based. On the procedure: as §1, §2

The subject of test [5] is SK-MEL-246 cells (Class 2, BRAF^G469A). Nature of the test: Cell proliferation (MTS) assay. The test is classed as cell-based.
In test [6] the test system is SK-MEL-239 C4 cells (BRAF^WT/BRAF-p61^V600E). Nature of the test: Cell proliferation (MTS) assay. The test is classed as cell-based. The note with it: 5 days.
The target of a further test is BRAF V600E (Homo sapiens, UniProt P15056, V600E). The experiment in a line: Elisa kinase inhibition assay (Carna Biosciences). It counts as biochemical. Details: purchased Carna Biosciences. The note with it: Km ATP, duplicate. On the procedure: Kinase assays were performed by Carna Biosciences by their protocol in duplicate using Km amounts of ATP calculated for each kinase.

The test system of test [7] is H1666 cells (Class 3, BRAF^G466V). Nature of the test: Cell proliferation (MTS) assay. The test is classed as cell-based. The note with it: 5 days.

T1 sequence (P15056 whole entry V600E): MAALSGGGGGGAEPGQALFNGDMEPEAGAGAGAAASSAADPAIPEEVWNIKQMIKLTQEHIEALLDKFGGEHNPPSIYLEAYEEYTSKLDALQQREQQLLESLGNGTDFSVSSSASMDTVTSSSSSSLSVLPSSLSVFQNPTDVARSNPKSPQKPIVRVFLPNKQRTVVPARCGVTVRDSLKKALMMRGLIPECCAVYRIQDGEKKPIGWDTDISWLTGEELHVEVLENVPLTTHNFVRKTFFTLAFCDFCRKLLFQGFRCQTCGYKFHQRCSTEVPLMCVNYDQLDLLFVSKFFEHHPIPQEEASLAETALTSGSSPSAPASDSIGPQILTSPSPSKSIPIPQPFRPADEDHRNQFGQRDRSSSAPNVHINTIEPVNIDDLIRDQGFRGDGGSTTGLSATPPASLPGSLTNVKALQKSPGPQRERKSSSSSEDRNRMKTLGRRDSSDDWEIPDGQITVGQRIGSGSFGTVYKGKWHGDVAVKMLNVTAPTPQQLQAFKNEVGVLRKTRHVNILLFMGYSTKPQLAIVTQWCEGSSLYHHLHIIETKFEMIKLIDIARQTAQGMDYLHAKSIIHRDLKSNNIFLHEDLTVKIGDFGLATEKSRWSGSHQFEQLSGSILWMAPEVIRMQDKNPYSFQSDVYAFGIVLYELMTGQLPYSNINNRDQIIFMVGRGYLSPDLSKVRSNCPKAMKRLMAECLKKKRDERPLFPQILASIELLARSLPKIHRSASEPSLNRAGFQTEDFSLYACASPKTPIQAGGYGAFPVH
BRAF V600E, sequence (P15056 whole entry V600E): as above

For `CCCS(=O)(=O)Nc1ccc(F)c(C(=O)c2c[nH]c3ncc(-c4ccc(N5CCN(CC(=O)N[C@H](C(=O)N6C[C@@H](O)C[C@H]6C(=O)NCc6ccc(-c7scnc7C)cc6)C(C)(C)C)CC5)cc4)cc23)c1F` [SJF-0661], the “inhibition of cell growth / effect on cell viability” value in test [1] is “minimal effect on cell viability”. Besides, in test [2], the “concentration giving maximal inhibition of MEK and ERK phosphorylation / maximal suppression of p-ERK” value was 100 nM. Moreover, the EC50 in test [3] turned out to be 243 ± 1.09 nM; in test [5] (120 h, 5-day treatment, read-out: EC50, cell growth) it was 278 ± 1.07 nM. Besides, the “effect on BRAF protein levels” value in test [4] is on record as “did not decrease BRAF protein levels”. Further, the “effect on cell growth” value in test [6] was “minimal effect”. Also, the midpoint of inhibition against BRAF V600E, the IC50, lay at 30 nM.

Consider `CCCS(=O)(=O)Nc1ccc(F)c(C(=O)c2c[nH]c3ncc(-c4ccc(Cl)cc4)cc23)c1F` [vemurafenib, reference compound], for which, in test [1], the “inhibition of cell growth / effect on cell viability” value is listed as “minimal effect on cell viability”. The 50% effective concentration (EC50) in test [3] stood at 215 ± 1.09 nM. For the same molecule, in test [5] (5 days, at concentrations above 1 μM, not sustained at 10 μM), the “inhibition of cellular growth” value was “some inhibition”. For the same molecule, in test [7], the cell growth inhibition result is on record as “less than 50%”. Besides, the “effect on cell growth” value in test [6] is on record as “minimal effect”.

The values above are taken from PMC7876048, “Mutant-selective degradation by BRAF-targeting PROTACs” (Nature Communications, 2021).
